According to patent publication US6428529B1, “Epidural administration of therapeutic compounds with sustained rate of release” (SkyePharma Inc., priority 1995, dated 2002):

Tests used:
rats [1] = experiment: Antinociception, hot plate test after epidural (or subcutaneous) dose; type: in vivo, Sprague-Dawley rats; settings: 250 μg epidural
Protocol: Baseline values of nociception following placement of the epidural catheter were determined by subjecting the animals to standard hot plate (52.5±0.5° C.) testing as described in M. S. Wallace et al., (Anesth. Analg. 79:778-786, 1994). Response latency to nociception (in seconds) was measured from the time when the animals were placed on the hot plate to the time when they either licked their hind paw or jumped. The baseline (pretreatment) response latency value was defined as 0% of the maximum possible analgesia (MPA) in each experimental animal. […] Following epidural administration of the test solutions via the catheter emplanted as described above, the epidural catheter was flushed with 10 μl of 0.9% sodium chloride.
Antinociception was determined in 5 or 6 animals for each dose and each drug. To prevent tissue damage to the footpads, a cutoff time of 60 seconds was used. Accordingly, 100% MPA was defined as antinociception lasting ≧60 seconds.
Efficacy and respiratory depression curves were plotted as a function of time for each dose administered. Hot plate responses were calculated as a percentage of the maximum possible analgesia (%MPA) as described in Wallace et al. (supra): [formula]
All areas under the curves were calculated by the trapezoidal rule to the last data point using the RSTRIP computer program [Micromath, Salt Lake City, Utah]. […]

rats [2] = experiment: Respiratory depression quantified by pulse oximetry (SpO2) after single epidural bolus; settings: for respiratory depression (decrease in SpO2): single epidural dose 10 to 2000 μg, sulfate
Protocol: Respiratory depression was quantified by pulse oximetry. The animals were removed from their cages, placed in polystyrene rat restraints (Plas Labs, Lansing, Mich.) and allowed to acclimate for 5 minutes. […] Pulse oximetry was performed on 5 to 6 animals at each data point, except for the 50 μg dose where 3 animals were used. The pulse oximetry values of percent hemoglobin oxygen saturation (SpO2) were monitored continuously in real time. The maximum value obtaining during the 3-minute recording period was defined as oxygen saturation.

How did the “peak effect (% of maximum possible analgesia)” value (rats [1]) turn out when CN1CC[C@]23c4c5ccc(O)c4O[C@H]2[C@@H](O)C=C[C@H]3[C@H]1C5.O=S(=O)(O)O [MS, morphine sulfate] was run?
The value was ~100 % MPA.

And the “time to decrease to 50% MPA” value (rats [1])?
Its value is 0.17 days.

What about the delayed respiratory depression (rats [2]; single epidural dose) of the same compound?
The delayed respiratory depression was “no delayed respiratory depression”.

What about the “respiratory depression (decrease in SpO2)” value (rats [2]; listed as free morphine) of the same compound?
Its value is “did cause respiratory suppression at high dosages”.

And the “respiratory depression (decrease in SpO2)” value (rats [2])?
Its value is “dose-dependent increase in respiratory depression”.
